Test results from the CheMixHub viscosity set.

Experiment: xn = mol fraction of the nth substance listed

NC=O + CO
Conditions | viscosity [mPa·s]
298.15 K, 100 kPa, x1 = 0.04242 | 0.594
298.15 K, 100 kPa, x1 = 0.1098 | 0.672
298.15 K, 100 kPa, x1 = 0.1552 | 0.728
298.15 K, 100 kPa, x1 = 0.1966 | 0.784
298.15 K, 100 kPa, x1 = 0.2342 | 0.843
298.15 K, 100 kPa, x1 = 0.3571 | 1.06
298.15 K, 100 kPa, x1 = 0.4211 | 1.2
298.15 K, 100 kPa, x1 = 0.4775 | 1.33
298.15 K, 100 kPa, x1 = 0.5097 | 1.42
298.15 K, 100 kPa, x1 = 0.5776 | 1.6
298.15 K, 100 kPa, x1 = 0.6744 | 1.9
298.15 K, 100 kPa, x1 = 0.7135 | 2.03
298.15 K, 100 kPa, x1 = 0.8191 | 2.45
298.15 K, 100 kPa, x1 = 0.8522 | 2.6
298.15 K, 100 kPa, x1 = 0.9099 | 2.86
298.15 K, 101 kPa, x1 = 0.1 | 0.746
298.15 K, 101 kPa, x1 = 0.2 | 0.861
298.15 K, 101 kPa, x1 = 0.3 | 1.055
298.15 K, 101 kPa, x1 = 0.3966 | 1.247
298.15 K, 101 kPa, x1 = 0.4978 | 1.484
298.15 K, 101 kPa, x1 = 0.6 | 1.749
298.15 K, 101 kPa, x1 = 0.7 | 2.067
298.15 K, 101 kPa, x1 = 0.7988 | 2.431
298.15 K, 101 kPa, x1 = 0.902 | 2.874
303.15 K, 101.3 kPa, x1 = 0.0714 | 0.55
303.15 K, 101.3 kPa, x1 = 0.1586 | 0.63
303.15 K, 101.3 kPa, x1 = 0.2422 | 0.74
303.15 K, 101.3 kPa, x1 = 0.32 | 0.85
303.15 K, 101.3 kPa, x1 = 0.3836 | 0.95
303.15 K, 101.3 kPa, x1 = 0.5273 | 1.2
303.15 K, 101.3 kPa, x1 = 0.5975 | 1.4
303.15 K, 101.3 kPa, x1 = 0.6822 | 1.6
303.15 K, 101.3 kPa, x1 = 0.7619 | 1.8
303.15 K, 101.3 kPa, x1 = 0.8279 | 2
303.15 K, 101.3 kPa, x1 = 0.917 | 2.3
308.15 K, 101.3 kPa, x1 = 0.0714 | 0.51
308.15 K, 101.3 kPa, x1 = 0.1586 | 0.59
308.15 K, 101.3 kPa, x1 = 0.2422 | 0.68
308.15 K, 101.3 kPa, x1 = 0.32 | 0.78
308.15 K, 101.3 kPa, x1 = 0.3836 | 0.87
308.15 K, 101.3 kPa, x1 = 0.5273 | 1.1
308.15 K, 101.3 kPa, x1 = 0.5975 | 1.2
308.15 K, 101.3 kPa, x1 = 0.6822 | 1.4
308.15 K, 101.3 kPa, x1 = 0.7619 | 1.6
308.15 K, 101.3 kPa, x1 = 0.8279 | 1.8
308.15 K, 101.3 kPa, x1 = 0.917 | 2.1
313.15 K, 101 kPa, x1 = 0.1 | 0.584
313.15 K, 101 kPa, x1 = 0.2 | 0.685
313.15 K, 101 kPa, x1 = 0.3 | 0.818
313.15 K, 101 kPa, x1 = 0.3966 | 0.995
313.15 K, 101 kPa, x1 = 0.4978 | 1.116
313.15 K, 101 kPa, x1 = 0.6 | 1.307
313.15 K, 101 kPa, x1 = 0.7 | 1.538
313.15 K, 101 kPa, x1 = 0.7988 | 1.78
313.15 K, 101 kPa, x1 = 0.902 | 2.09
313.15 K, 101.3 kPa, x1 = 0.0714 | 0.48
313.15 K, 101.3 kPa, x1 = 0.1586 | 0.54
313.15 K, 101.3 kPa, x1 = 0.2422 | 0.63
313.15 K, 101.3 kPa, x1 = 0.32 | 0.72
313.15 K, 101.3 kPa, x1 = 0.3836 | 0.8
313.15 K, 101.3 kPa, x1 = 0.5273 | 1.02
313.15 K, 101.3 kPa, x1 = 0.5975 | 1.1
313.15 K, 101.3 kPa, x1 = 0.6822 | 1.3
313.15 K, 101.3 kPa, x1 = 0.7619 | 1.4
313.15 K, 101.3 kPa, x1 = 0.8279 | 1.6
313.15 K, 101.3 kPa, x1 = 0.917 | 1.9
318.15 K, 101.3 kPa, x1 = 0.0714 | 0.46
318.15 K, 101.3 kPa, x1 = 0.1586 | 0.51
318.15 K, 101.3 kPa, x1 = 0.2422 | 0.58
318.15 K, 101.3 kPa, x1 = 0.32 | 0.67
318.15 K, 101.3 kPa, x1 = 0.3836 | 0.73
318.15 K, 101.3 kPa, x1 = 0.5273 | 0.92
318.15 K, 101.3 kPa, x1 = 0.5975 | 1.01
318.15 K, 101.3 kPa, x1 = 0.6822 | 1.1
318.15 K, 101.3 kPa, x1 = 0.7619 | 1.3
318.15 K, 101.3 kPa, x1 = 0.8279 | 1.4
318.15 K, 101.3 kPa, x1 = 0.917 | 1.6
323.15 K, 101.3 kPa, x1 = 0.0714 | 0.42
323.15 K, 101.3 kPa, x1 = 0.1586 | 0.47
323.15 K, 101.3 kPa, x1 = 0.2422 | 0.54
323.15 K, 101.3 kPa, x1 = 0.32 | 0.6
323.15 K, 101.3 kPa, x1 = 0.3836 | 0.66
323.15 K, 101.3 kPa, x1 = 0.5273 | 0.8
323.15 K, 101.3 kPa, x1 = 0.5975 | 0.86
323.15 K, 101.3 kPa, x1 = 0.6822 | 0.96
323.15 K, 101.3 kPa, x1 = 0.7619 | 1.07
323.15 K, 101.3 kPa, x1 = 0.8279 | 1.2
323.15 K, 101.3 kPa, x1 = 0.917 | 1.3
